Laboratory results: patent US20240018123A1, “COMPOUND FOR INHIBITING OR DISINTEGRATING ANDROGEN RECEPTOR, AND PHARMACEUTICAL USE THEREOF” (KOREA RESEARCH INSTITUTE OF CHEMICAL TECHNOLOGY, priority 2020, published 2024)
Where two headings read alike, the source gives them in different places.

What was measured:
[1] = system: VCaP cells; assay: Cytotoxicity assessment (Cell-titer-glo cell viability), VCaP; conditions: read-out: VCaP (CC50); VCaP cells, 6 days of treatment, Cell-titer-glo, vs DMSO
[2] = system: LNCaP cells; assay: Cytotoxicity assessment (Cell-titer-glo cell viability), LNCaP
Experimental: In order to evaluate the androgen receptor (AR) cytotoxicity of the compounds according to the present invention, the following experiment was conducted. Specifically, 1.5×10^3 (LNCaP) or 4×10^3 (VCaP, 22RV1), respectively, of LNCaP, VCaP, and 22RV1 cells were injected into each well of a 96-well plate. The next day, each well was treated with the compound at a final concentration of 3 nM, 10 nM, 30 nM, 100 nM, 300 nM, 1 μM, 3 μM, and 10 μM. […] After 6 days of treatment, Cell-titer-glo (promega) was treated and reacted for 10 minutes, and cell viability was measured with a multimode plate reader (PerkinElmer, Inc.), and the change was quantified compared to when DMSO was treated.

[3] = molecular target: T1, Androgen receptor (AR) (Homo sapiens, UniProt P10275, T878A); assay: Assessment of AR proteolytic activity (Western blotting of LNCap cell lysates); type: cell-based; conditions: 24 hours of treatment, Western blotting quantified with Image J
T1 construct: 5.5×10^5 LNCap cells were injected into each well of a 6-well plate; endogenous in cells; host or cells: LNCaP
T1 sequence (P10275 1-920 T878A): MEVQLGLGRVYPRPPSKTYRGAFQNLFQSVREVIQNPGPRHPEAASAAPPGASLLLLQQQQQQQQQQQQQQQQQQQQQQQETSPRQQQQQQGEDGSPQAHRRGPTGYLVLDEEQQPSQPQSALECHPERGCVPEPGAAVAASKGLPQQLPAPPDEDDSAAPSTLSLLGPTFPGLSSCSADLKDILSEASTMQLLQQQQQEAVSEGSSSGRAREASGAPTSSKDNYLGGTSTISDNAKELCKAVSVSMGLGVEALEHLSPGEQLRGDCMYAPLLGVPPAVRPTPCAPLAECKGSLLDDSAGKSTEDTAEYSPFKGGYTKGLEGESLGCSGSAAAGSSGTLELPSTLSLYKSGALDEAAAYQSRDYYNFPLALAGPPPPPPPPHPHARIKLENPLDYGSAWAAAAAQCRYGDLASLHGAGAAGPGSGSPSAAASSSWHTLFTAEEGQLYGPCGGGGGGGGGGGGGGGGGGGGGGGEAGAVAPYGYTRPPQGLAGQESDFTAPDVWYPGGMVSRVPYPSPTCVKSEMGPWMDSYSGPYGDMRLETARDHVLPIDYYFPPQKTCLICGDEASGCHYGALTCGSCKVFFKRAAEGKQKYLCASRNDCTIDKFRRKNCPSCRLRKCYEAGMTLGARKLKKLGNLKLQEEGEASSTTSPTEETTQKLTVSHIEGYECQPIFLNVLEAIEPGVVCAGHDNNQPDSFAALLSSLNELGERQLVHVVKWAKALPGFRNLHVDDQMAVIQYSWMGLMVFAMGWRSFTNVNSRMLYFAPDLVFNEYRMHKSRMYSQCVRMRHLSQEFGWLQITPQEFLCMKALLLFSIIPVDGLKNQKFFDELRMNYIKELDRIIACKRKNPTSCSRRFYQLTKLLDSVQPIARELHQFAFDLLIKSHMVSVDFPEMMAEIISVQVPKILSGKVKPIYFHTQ
Method in brief: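 LNCap cells seeded at 5.5×10^5 per well and treated with compound for 24 hours. Lysates prepared in RIPA buffer (pH 7.5, with protease inhibitors). AR protein levels assessed by Western blot with densitometric quantification.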

[4] = system: VCaP cells
[5] = read-out: LNCAP (CC50), LNCaP cells, 6 days of treatment, Cell-titer-glo, vs DMSO

Degradation (1 μM treated in LNCaP, % AR remaining) [3] | SMILES | CC50 [1] | CC50 [2, 5] | also measured
 | CC1(C)C(NC(=O)c2ccc(CCN3CCN(CC4CCN(C(=O)CNc5ccc6nnn(C7CCC(=O)NC7=O)c(=O)c6c5)CC4)CC3)cc2)C(C)(C)C1Oc1ccc(C#N)c(Cl)c1 (centres unmarked) [Example 110, N-((1r,3r)-3-(3-chloro-4-cyanophenoxy)-2,2,4,4-tetramethylcyclobutyl)-4-(2-(4-((1-((3-(2,6-dioxopiperidin-3-yl)-4-oxo-3,4-dihydrobenzo[d][1,2,3]triazin-6-yl)glycyl)piperidin-4-yl)methyl)piperazin-1-yl)ethyl)benzamide] | 3.65 nM | 0.456 µM | 
 | CC1(C)C(NC(=O)c2ccc(CCN3CC4CN(C(=O)C5CCN(c6ccc7nnn(C8CCC(=O)NC8=O)c(=O)c7c6)CC5)CC4C3)cc2)C(C)(C)C1Oc1ccc(C#N)c(Cl)c1 (centres unmarked) [Example 93, N-((1r,3r)-3-(3-chloro-4-cyanophenoxy)-2,2,4,4-tetramethylcyclobutyl)-4-(2-(5-(1-(3-(2,6-dioxopiperidin-3-yl)-4-oxo-3,4-dihydrobenzo[d][1,2,3]triazin-6-yl)piperidine-4-carbonyl)hexahydropyrrolo[3,4-c]pyrrol-2(1H)-yl)ethyl)benzamide] | 22.4 nM | 0.0515 µM | 
 | CC1(C)C(NC(=O)c2ccc(-n3cc(CC4CCN(C(=O)CNc5ccc6nnn(C7CCC(=O)NC7=O)c(=O)c6c5)CC4)nn3)cc2)C(C)(C)C1Oc1ccc(C#N)c(Cl)c1 (centres unmarked) [Example 106, N-((1r,3r)-3-(3-chloro-4-cyanophenoxy)-2,2,4,4-tetramethylcyclobutyl)-4-(4-((1-((3-(2,6-dioxopiperidin-3-yl)-4-oxo-3,4-dihydrobenzo[d][1,2,3]triazin-6-yl)glycyl)piperidin-4-yl)methyl)-1H-1,2,3-triazol-1-yl)benzamide] | 11.3 nM | 0.0691 µM | 
 | CC1(C)C(NC(=O)c2ccc(-n3cc(CC4CCN(c5ccc6nnn(C7CCC(=O)NC7=O)c(=O)c6c5)CC4)nn3)cc2)C(C)(C)C1Oc1ccc(C#N)c(Cl)c1 (centres unmarked) [Example 103, N-((1r,3r)-3-(3-chloro-4-cyanophenoxy)-2,2,4,4-tetramethylcyclobutyl)-4-(4-((1-(3-(2,6-dioxopiperidin-3-yl)-4-oxo-3,4-dihydrobenzo[d][1,2,3]triazin-6-yl)piperidin-4-yl)methyl)-1H-1,2,3-triazol-1-yl)benzamide] | 12.3 nM | 0.144 µM | 
 | CC1(C)C(NC(=O)c2ccc(CCN3CC4CN(C(=O)C5CN(c6ccc7nnn(C8CCC(=O)NC8=O)c(=O)c7c6)C5)CC4C3)cc2)C(C)(C)C1Oc1ccc(C#N)c(Cl)c1 (centres unmarked) [Example 94, N-((1r,3r)-3-(3-chloro-4-cyanophenoxy)-2,2,4,4-tetramethylcyclobutyl)-4-(2-(5-(1-(3-(2,6-dioxopiperidin-3-yl)-4-oxo-3,4-dihydrobenzo[d][1,2,3]triazin-6-yl)azetidine-3-carbonyl)hexahydropyrrolo[3,4-c]pyrrol-2(1H)-yl)ethyl)benzamide] | 7.84 nM | 0.108 µM | 
88% | CC1(C)[C@H](NC(=O)c2ccc(N3CCN(CC4CCN(CC5CN(c6ccc7nnn(C8CCC(=O)NC8=O)c(=O)c7c6)C5)CC4)CC3)cc2)C(C)(C)[C@H]1Oc1ccc(C#N)c(Cl)c1 (some centres unmarked) [Example 67, N-((1r,3r)-3-(3-chloro-4-cyanophenoxy)-2,2,4,4-tetramethylcyclobutyl)-4-(4-((1-((1-(3-(2,6-dioxopiperidin-3-yl)-4-oxo-3,4-dihydrobenzo[d][1,2,3]triazin-6-yl)azetidin-3-yl)methyl)piperidin-4-yl)methyl)piperazin-1-yl)benzamide] |  |  | CC50 [4]: 106 nM
 | CC1(C)[C@H](NC(=O)c2ccc(N3CCN(CC4CCN(C(=O)COc5ccc6nnn(C7CCC(=O)NC7=O)c(=O)c6c5)CC4)CC3)cc2)C(C)(C)[C@H]1Oc1ccc(C#N)c(Cl)c1 (some centres unmarked) [Example 13, N-((1r,3r)-3-(3-chloro-4-cyanophenoxy)-2,2,4,4-tetramethylcyclobutyl)-4-(4-((1-(2-((3-(2,6-dioxopiperidin-3-yl)-4-oxo-3,4-dihydrobenzo[d][1,2,3]triazin-6-yl)oxy)acetyl)piperidin-4-yl)methyl)piperazin-1-yl)benzamide] |  |  | remaining activity at 1 µM ([3]; read-out: Degradation (1 μM treated in LNCaP, % AR remaining)): 8.3%; CC50 ([2]; Homo sapiens, LNCaP, 144 h, read-out: LNCAP (CC50, μM)): 0.803 µM
9.8% | CC1(C)C(NC(=O)c2ccc(N3CCN(CCCOC4CCN(C(=O)C5CN(c6ccc7nnn(C8CCC(=O)NC8=O)c(=O)c7c6)C5)CC4)CC3)cc2)C(C)(C)C1Oc1ccc(C#N)c(Cl)c1 (centres unmarked) [Example 36, N-((1r,3r)-3-(3-chloro-4-cyanophenoxy)-2,2,4,4-tetramethylcyclobutyl)-4-(4-(3-((1-(1-(3-(2,6-dioxopiperidin-3-yl)-4-oxo-3,4-dihydrobenzo[d][1,2,3]triazin-6-yl)azetidine-3-carbonyl)piperidin-4-yl)oxy)propyl)piperazin-1-yl)benzamide] |  |  | CC50 [4]: 36.5 nM
23% | CC1(C)[C@H](NC(=O)c2ccc(N3CCN(C4CC5(CCN(C(=O)COc6ccc7nnn(C8CCC(=O)NC8=O)c(=O)c7c6)CC5)C4)CC3)cc2)C(C)(C)[C@H]1Oc1ccc(C#N)c(Cl)c1 (some centres unmarked) [Example 18, N-((1r,3r)-3-(3-chloro-4-cyanophenoxy)-2,2,4,4-tetramethylcyclobutyl)-4-(4-(7-(2-((3-(2,6-dioxopiperidin-3-yl)-4-oxo-3,4-dihydrobenzo[d][1,2,3]triazin-6-yl)oxy)acetyl)-7-azaspiro[3.5]nonan-2-yl)piperazin-1-yl)benzamide] |  | 0.196 µM | 
21% | CC1(C)[C@H](NC(=O)c2ccc(N3CCN(C4CC5(CCN(C(=O)C6CN(c7ccc8nnn(C9CCC(=O)NC9=O)c(=O)c8c7)C6)CC5)C4)CC3)cc2)C(C)(C)[C@H]1Oc1ccc(C#N)c(Cl)c1 (some centres unmarked) [Example 21, N-((1r,3r)-3-(3-chloro-4-cyanophenoxy)-2,2,4,4-tetramethylcyclobutyl)-4-(4-(7-(1-(3-(2,6-dioxopiperidin-3-yl)-4-oxo-3,4-dihydrobenzo[d][1,2,3]triazin-6-yl)azetidine-3-carbonyl)-7-azaspiro[3.5]nonan-2-yl)piperazin-1-yl)benzamide] |  | 0.312 µM | 

SMILES | Degradation (1 μM treated in LNCaP, % AR remaining) [3] | CC50 [1] | CC50 [2, 5] | also measured
CC1(C)[C@H](NC(=O)c2ccc(OCCOCCOCCOCCOCCOCCNc3cccc4nnn(C5CCC(=O)NC5=O)c(=O)c34)cc2)C(C)(C)[C@H]1Oc1ccc(C#N)c(Cl)c1 (some centres unmarked) [Example 1, N-((1r,3r)-3-(3-chloro-4-cyanophenoxy)-2,2,4,4-tetramethylcyclobutyl)-4-((17-((3-(2,6-dioxopiperidin-3-yl)-4-oxo-3,4-dihydrobenzo[d][1,2,3]triazin-5-yl)amino)-3,6,9,12,15-pentaoxaheptadecyl)oxy)benzamide] | 72% |  | 5.69 µM | 
CC1(C)C(NC(=O)c2ccc(OCCOCCOCCOCCOCCOCCCCNC(=O)C3CN(c4ccc5nnn(C6CCC(=O)NC6=O)c(=O)c5c4)C3)cc2)C(C)(C)C1Oc1ccc(C#N)c(Cl)c1 (centres unmarked) [Example 16, N-(1-(4-(((1r,3r)-3-(3-chloro-4-cyanophenoxy)-2,2,4,4-tetramethylcyclobutyl)carbamoyl)phenoxy)-3,6,9,12,15-pentaoxanonadecan-19-yl)-1-(3-(2,6-dioxopiperidin-3-yl)-4-oxo-3,4-dihydrobenzo[d][1,2,3]triazin-6-yl)azetidine-3-carboxamide] | 12.6% |  | 1.95 µM | 
CC1(C)C(NC(=O)c2ccc(OCCOCCOCCOCCOCCOCCCCNC(=O)C3CCN(c4ccc5nnn(C6CCC(=O)NC6=O)c(=O)c5c4)CC3)cc2)C(C)(C)C1Oc1ccc(C#N)c(Cl)c1 (centres unmarked) [Example 15, N-(1-(4-(((1r,3r)-3-(3-chloro-4-cyanophenoxy)-2,2,4,4-tetramethylcyclobutyl)carbamoyl)phenoxy)-3,6,9,12,15-pentaoxanonadecan-19-yl)-1-(3-(2,6-dioxopiperidin-3-yl)-4-oxo-3,4-dihydrobenzo[d][1,2,3]triazin-6-yl)piperidine-4-carboxamide] | 13.6% |  | 1.31 µM | 
